Like-named read-outs stand apart in the source and are kept apart here.
Tests used:
[1] = biological target: CK1a1 (Homo sapiens, UniProt P48729); assay: Kinase selectivity, % remaining activity; assay type: biochemical; conditions: 10 μM compound, 10 μM ATP, duplicate
Protocol: (§1) Compounds were tested in single dose duplicate mode at a concentration of 10 μM (in DMSO) and reactions were carried out at 10 μM ATP, Table 3 reports the % of remaining activity (relative to DMSO).

[2] = biological target: EPHA2 (Homo sapiens, UniProt P29317); assay: Kinase selectivity, % remaining activity; assay type: biochemical; conditions: 10 μM compound, 10 μM ATP, duplicate; for remaining activity at 10 µM: read-out: % of remaining activity (relative to DMSO)
Procedure, shortened: (§2)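 Read-out is percent of kinase activity remaining compared with vehicle (DMSO). Testing used one dose, 10 μM, in duplicate at 10 μM ATP.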

[3] = biological target: KDR/VEGFR2 (Homo sapiens, UniProt P35968); assay: Kinase selectivity, % remaining activity; assay type: biochemical; conditions: 10 μM compound, 10 μM ATP, duplicate; for remaining activity at 10 µM: read-out: % of remaining activity (relative to DMSO)
Procedure, shortened: as §2

[4] = biological target: LCK (Homo sapiens, UniProt P06239); assay: Kinase selectivity, % remaining activity; assay type: biochemical; conditions: 10 μM compound, 10 μM ATP, duplicate; for remaining activity at 10 µM: read-out: % of remaining activity (relative to DMSO)
Procedure, shortened: as §2

[5] = biological target: ROCK1 (Homo sapiens, UniProt Q13464); assay: Kinase selectivity, % remaining activity; assay type: biochemical; conditions: 10 μM compound, 10 μM ATP, duplicate; for remaining activity at 10 µM: read-out: % of remaining activity (relative to DMSO)
Procedure, shortened: as §2

[6] = biological target: CK1d (casein kinase 1 delta) (Homo sapiens, UniProt P48730); assay: Kinase selectivity, % remaining activity and IC50; assay type: biochemical; conditions: 10 μM ATP; for % of remaining activity (relative to DMSO) / remaining activity at 10 µM: CK1d, 10 μM compound, duplicate; for remaining activity at 10 µM: read-out: % of remaining activity (relative to DMSO); for IC50: casein kinase 1 delta, 10-dose, 3 fold serial dilution
Protocol: A two-tier strategy to determine the selectivity of compound A was applied: first, the compound was tested at a single concentration (in duplicate) to determine the %-remaining activity of the target kinase. Subsequently, the IC50 of compound A and comparative compounds for casein kinase 1 delta were determined.
as §1
Control compound GW5074 (Tocris®) was tested starting at 20 μM. Reactions were carried out at 10 μM ATP.

[7] = test system: TMHT (Thy-1 Mutated Human Tau) mouse; assay: In-vivo efficacy, Morris Water Maze in tau transgenic mice; conditions: 30 mg/kg orally for 8 weeks
Excerpt: Various compounds of different classes (among them also antibody treatments) were positively tested for their efficacy in the TMHT model. Published examples are the γ-secretase modulator CHF5074 (Lanzilotta A, et al. The γ-secretase modulator CHF5074 reduces the accumulation of native hyperphosphoxylated tau in a transgenic mouse model of Alzheimer's disease. J Mol Neurosci. 45(1):22--33 (2010)), sodium selenate (Corcoran N M et al. Sodium selenate specifically activates PP2A phosphatase, dephosphorylates tau and reverses memory deficits in an Alzheimer's disease model. J Clin Neurosci. 17(8):1025-33 (2010)) and grape-seed polyphenol extract (Wang J et al. Grape derived polyphenols attenuate tau neuropathology in a mouse model of Alzheimer's disease. […] The effects of the compounds on learning in the Morris Mater Maze (MWM) were evaluated. Blood (plasma) and brain samples were collected after sacrification. Samples collected at sacrifice were plasma, left cortex, left hippocampus, right cortex, right hippocampus, remainder of left brain hemisphere, remainder of right brain hemisphere. In total 48 animals were used and allocated to 4 treatment groups. The start position of the mouse and the position of the platform (FIG. 1) in the different trials of the MWM were as indicated in Table 9: […] A descriptive statistical analysis was performed on all evaluated parameters. All data were represented as mean ±standard error of mean (SEM). MWM learning curve data of three trials per day were averaged. Over a period of 4 days, the ability to find a hidden platform using visual cues was measured performing 3 trials a day. By comparison of the learning curves, the cognitive abilities of the different treatment groups and possible drug effects were evaluated.

[8] = biological target: BRAF (Homo sapiens, UniProt P15056); assay: KINOMEscan binding assay; conditions: read-out: % Ctrl @ 10000 nM
[9] = biological target: CLK2 (Homo sapiens, UniProt P49760); assay: KINOMEscan binding assay; conditions: read-out: % Ctrl @ 10000 nM
[10] = biological target: DCAMKL2 (Homo sapiens, UniProt Q8N568); assay: KINOMEscan binding assay; conditions: read-out: % Ctrl @ 10000 nM
[11] = biological target: DMPK (Homo sapiens, UniProt Q09013); assay: KINOMEscan binding assay; conditions: read-out: % Ctrl @ 10000 nM
[12] = biological target: FLT1 (Homo sapiens, UniProt P17948); assay: KINOMEscan binding assay; conditions: read-out: % Ctrl @ 10000 nM
[13] = biological target: FLT3 (N841I) (Homo sapiens, UniProt P36888, N841I); assay: KINOMEscan binding assay; conditions: read-out: % Ctrl @ 10000 nM
[14] = biological target: FLT3 (R834Q) (Homo sapiens, UniProt P36888, R834Q); assay: KINOMEscan binding assay; conditions: read-out: % Ctrl @ 10000 nM
[15] = biological target: LATS1 (Homo sapiens, UniProt O95835); assay: KINOMEscan binding assay; conditions: read-out: % Ctrl @ 10000 nM
[16] = biological target: T1, LKB1 (Homo sapiens, UniProt Q15831); assay: KINOMEscan binding assay; conditions: read-out: % Ctrl @ 10000 nM
T1 construct: T7 phage fusion (most assays) or DNA label after HEK293 expression; purchased DiscoveRx (KINOMEscan, LeadHunter Discovery services); host or cells: T7 phage in E. coli (BL21-derived) or HEK293

[17] = biological target: T2, MAP4K2 (Homo sapiens, UniProt Q12851); assay: KINOMEscan binding assay; conditions: read-out: % Ctrl @ 10000 nM
T2 construct: T7 phage fusion (most assays) or DNA label after HEK293 expression; purchased DiscoveRx (KINOMEscan, LeadHunter Discovery services); host or cells: T7 phage in E. coli (BL21-derived) or HEK293

[18] = biological target: MET (Y1235D) (Homo sapiens, UniProt P08581, Y1235D); assay: KINOMEscan binding assay; conditions: read-out: % Ctrl @ 10000 nM
[19] = biological target: PAK6 (Homo sapiens, UniProt Q9NQU5); assay: KINOMEscan binding assay; conditions: read-out: % Ctrl @ 10000 nM
[20] = biological target: PIK3C2B (Homo sapiens, UniProt O00750); assay: KINOMEscan binding assay; conditions: read-out: % Ctrl @ 10000 nM
[21] = biological target: S6K1 (Homo sapiens, UniProt P23443); assay: KINOMEscan binding assay; conditions: read-out: % Ctrl @ 10000 nM
[22] = biological target: SRPK1 (Homo sapiens, UniProt Q96SB4); assay: KINOMEscan binding assay; conditions: read-out: % Ctrl @ 10000 nM
[23] = biological target: TLK2 (Homo sapiens, UniProt Q86UE8); assay: KINOMEscan binding assay; conditions: read-out: % Ctrl @ 10000 nM
[24] = biological target: T3, WNK3 (Homo sapiens, UniProt Q9BYP7); assay: KINOMEscan binding assay; conditions: read-out: % Ctrl @ 10000 nM
T3 construct: purchased DiscoveRx (KINOMEscan, LeadHunter Discovery services)

[25] = CK1a1, read-out: % of remaining activity (relative to DMSO)

EPHA2, sequence (P29317 24-976): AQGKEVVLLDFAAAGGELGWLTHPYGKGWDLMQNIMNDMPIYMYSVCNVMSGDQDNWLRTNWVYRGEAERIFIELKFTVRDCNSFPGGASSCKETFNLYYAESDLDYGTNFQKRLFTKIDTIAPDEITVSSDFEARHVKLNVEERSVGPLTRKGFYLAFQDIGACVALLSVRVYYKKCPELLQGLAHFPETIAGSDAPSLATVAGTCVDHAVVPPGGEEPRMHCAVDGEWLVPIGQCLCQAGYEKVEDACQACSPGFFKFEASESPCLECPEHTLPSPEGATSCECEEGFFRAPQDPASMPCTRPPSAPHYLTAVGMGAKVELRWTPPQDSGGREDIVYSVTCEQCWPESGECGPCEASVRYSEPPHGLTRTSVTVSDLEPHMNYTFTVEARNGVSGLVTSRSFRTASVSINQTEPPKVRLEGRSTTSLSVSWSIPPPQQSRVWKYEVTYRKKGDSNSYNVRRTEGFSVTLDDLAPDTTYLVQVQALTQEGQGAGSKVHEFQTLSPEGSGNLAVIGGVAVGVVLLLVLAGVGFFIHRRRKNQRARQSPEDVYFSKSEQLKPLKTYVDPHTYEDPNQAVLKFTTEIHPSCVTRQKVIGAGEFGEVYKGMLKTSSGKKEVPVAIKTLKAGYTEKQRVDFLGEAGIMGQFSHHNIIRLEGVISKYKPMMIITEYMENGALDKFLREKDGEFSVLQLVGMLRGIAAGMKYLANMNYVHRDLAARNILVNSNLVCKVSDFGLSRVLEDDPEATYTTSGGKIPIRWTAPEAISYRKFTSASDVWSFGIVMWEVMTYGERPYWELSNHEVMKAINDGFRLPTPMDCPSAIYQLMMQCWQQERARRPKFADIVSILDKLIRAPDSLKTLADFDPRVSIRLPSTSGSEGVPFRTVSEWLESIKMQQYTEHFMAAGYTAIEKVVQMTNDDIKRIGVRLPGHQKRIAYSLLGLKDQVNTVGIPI
LCK, sequence (P06239 whole entry): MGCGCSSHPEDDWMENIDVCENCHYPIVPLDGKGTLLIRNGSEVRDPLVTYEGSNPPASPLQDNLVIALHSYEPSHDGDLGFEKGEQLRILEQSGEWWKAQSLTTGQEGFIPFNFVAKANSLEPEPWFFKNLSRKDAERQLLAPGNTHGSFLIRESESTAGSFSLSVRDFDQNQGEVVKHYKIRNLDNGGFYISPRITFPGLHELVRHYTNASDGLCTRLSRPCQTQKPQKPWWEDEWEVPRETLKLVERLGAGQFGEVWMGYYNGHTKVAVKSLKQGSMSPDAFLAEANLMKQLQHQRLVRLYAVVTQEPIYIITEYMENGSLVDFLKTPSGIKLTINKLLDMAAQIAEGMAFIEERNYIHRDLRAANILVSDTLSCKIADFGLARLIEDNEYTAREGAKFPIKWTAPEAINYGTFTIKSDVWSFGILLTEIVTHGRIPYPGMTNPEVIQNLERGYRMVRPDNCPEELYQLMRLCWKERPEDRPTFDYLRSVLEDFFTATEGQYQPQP
CK1a1, sequence (P48729 whole entry): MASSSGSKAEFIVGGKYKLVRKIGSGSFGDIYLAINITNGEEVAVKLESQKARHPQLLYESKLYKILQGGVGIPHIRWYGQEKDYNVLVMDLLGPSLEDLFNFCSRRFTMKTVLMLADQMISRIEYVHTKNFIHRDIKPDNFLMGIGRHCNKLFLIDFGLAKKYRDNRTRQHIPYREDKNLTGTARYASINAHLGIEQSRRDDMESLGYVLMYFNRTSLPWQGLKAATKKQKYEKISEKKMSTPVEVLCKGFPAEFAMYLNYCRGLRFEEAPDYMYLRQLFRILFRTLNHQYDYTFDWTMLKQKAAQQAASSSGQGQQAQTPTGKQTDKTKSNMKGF
KDR/VEGFR2, sequence (P35968 20-1356): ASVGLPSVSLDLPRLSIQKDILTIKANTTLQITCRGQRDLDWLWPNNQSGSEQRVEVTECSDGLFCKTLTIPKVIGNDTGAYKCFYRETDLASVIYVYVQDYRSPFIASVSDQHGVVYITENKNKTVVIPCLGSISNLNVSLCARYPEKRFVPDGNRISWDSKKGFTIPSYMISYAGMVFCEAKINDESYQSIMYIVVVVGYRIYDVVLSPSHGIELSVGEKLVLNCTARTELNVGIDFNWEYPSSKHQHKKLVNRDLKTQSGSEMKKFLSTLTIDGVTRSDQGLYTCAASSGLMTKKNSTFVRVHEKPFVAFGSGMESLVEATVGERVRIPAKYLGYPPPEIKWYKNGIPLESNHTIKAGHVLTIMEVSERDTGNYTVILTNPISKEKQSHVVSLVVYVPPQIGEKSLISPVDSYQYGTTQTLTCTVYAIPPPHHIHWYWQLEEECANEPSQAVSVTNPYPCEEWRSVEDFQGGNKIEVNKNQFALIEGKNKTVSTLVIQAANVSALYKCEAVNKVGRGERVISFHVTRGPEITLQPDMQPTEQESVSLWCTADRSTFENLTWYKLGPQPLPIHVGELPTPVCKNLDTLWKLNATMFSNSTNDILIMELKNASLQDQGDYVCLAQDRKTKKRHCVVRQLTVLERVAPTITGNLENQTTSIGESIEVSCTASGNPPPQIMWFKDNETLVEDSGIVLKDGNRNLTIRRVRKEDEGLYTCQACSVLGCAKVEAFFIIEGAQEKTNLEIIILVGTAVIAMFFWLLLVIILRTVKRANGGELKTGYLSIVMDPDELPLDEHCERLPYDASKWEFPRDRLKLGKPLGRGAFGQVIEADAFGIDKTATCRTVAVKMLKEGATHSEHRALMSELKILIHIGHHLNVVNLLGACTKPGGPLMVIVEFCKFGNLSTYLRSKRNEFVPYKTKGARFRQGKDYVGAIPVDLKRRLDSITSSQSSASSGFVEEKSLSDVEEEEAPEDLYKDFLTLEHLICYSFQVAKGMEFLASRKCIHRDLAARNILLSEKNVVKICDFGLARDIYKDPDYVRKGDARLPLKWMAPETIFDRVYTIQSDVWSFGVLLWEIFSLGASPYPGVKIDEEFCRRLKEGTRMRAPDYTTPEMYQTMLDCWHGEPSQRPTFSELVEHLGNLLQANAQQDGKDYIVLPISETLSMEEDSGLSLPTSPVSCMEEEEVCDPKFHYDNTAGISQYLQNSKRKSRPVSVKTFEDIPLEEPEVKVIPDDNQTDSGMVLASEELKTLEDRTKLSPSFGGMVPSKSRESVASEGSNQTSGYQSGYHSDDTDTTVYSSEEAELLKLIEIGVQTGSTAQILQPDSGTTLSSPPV
ROCK1, sequence (Q13464 whole entry): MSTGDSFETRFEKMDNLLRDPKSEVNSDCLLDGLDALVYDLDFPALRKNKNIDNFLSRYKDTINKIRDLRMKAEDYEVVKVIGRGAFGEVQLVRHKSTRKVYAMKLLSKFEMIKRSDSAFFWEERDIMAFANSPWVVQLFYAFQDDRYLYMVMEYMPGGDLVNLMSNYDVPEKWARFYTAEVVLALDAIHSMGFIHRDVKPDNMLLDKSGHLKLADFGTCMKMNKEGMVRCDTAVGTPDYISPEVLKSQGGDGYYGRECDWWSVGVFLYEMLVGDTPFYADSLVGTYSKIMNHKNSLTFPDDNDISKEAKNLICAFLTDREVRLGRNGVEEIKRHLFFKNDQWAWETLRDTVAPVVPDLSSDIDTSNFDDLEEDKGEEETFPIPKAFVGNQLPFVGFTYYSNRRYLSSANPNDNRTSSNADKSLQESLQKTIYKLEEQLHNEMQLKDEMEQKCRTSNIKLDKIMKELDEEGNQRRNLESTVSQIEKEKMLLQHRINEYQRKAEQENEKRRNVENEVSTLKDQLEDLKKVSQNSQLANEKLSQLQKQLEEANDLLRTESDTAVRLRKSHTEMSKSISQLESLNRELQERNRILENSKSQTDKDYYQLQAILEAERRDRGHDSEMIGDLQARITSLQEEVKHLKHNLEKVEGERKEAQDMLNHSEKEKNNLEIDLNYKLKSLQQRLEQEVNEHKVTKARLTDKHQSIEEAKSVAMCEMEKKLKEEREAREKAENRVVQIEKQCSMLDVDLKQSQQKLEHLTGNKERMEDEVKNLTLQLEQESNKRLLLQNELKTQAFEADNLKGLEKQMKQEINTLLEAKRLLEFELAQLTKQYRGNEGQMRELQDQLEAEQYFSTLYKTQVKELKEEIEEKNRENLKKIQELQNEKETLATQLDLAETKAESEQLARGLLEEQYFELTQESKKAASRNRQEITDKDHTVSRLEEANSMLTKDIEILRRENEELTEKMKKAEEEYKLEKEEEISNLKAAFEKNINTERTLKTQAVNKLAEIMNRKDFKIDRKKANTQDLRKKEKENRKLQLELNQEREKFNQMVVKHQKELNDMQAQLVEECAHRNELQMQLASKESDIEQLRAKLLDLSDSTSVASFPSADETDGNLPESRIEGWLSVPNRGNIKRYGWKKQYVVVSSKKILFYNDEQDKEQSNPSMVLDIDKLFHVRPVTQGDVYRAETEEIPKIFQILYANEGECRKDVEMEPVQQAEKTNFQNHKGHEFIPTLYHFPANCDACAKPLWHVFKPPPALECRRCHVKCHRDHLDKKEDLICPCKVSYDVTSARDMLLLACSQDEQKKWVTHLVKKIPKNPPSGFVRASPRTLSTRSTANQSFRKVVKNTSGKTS
CK1d (casein kinase 1 delta), sequence (P48730 whole entry): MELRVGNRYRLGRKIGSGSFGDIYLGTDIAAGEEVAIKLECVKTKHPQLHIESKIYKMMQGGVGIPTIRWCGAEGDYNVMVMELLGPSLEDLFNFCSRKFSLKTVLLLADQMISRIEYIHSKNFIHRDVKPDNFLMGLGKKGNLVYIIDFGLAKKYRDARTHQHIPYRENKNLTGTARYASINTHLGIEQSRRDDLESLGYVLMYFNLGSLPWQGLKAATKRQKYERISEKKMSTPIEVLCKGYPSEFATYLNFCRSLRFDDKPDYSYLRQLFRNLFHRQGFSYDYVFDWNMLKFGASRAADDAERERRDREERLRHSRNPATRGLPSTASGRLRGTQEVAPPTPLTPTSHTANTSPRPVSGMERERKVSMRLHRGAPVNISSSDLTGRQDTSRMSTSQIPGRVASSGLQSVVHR

SMILES | remaining activity at 10 µM [1, 25] | remaining activity at 10 µM [2] | remaining activity at 10 µM [3] | remaining activity at 10 µM [4] | remaining activity at 10 µM [5] | remaining activity at 10 µM [6] | IC50 [6] | Escape latency (time to reach the target), Mean ± SEM, Day 1 [7] | Path length to reach the target, Mean ± SEM, Day 1 [7] | Escape latency (time to reach the target), Mean ± SEM, Day 2 [7] | Path length to reach the target, Mean ± SEM, Day 2 [7] | Escape latency (time to reach the target), Mean ± SEM, Day 3 [7] | Path length to reach the target, Mean ± SEM, Day 3 [7] | Escape latency (time to reach the target), Mean ± SEM, Day 4 [7] | Path length to reach the target, Mean ± SEM, Day 4 [7] | remaining binding at 10 µM [8] | remaining binding at 10 µM [9] | remaining binding at 10 µM [10] | remaining binding at 10 µM [11] | remaining binding at 10 µM [12] | other results
COc1ccc(C=C2N=C(c3cccs3)OC2=O)cc1 [Comparative Compound 315, 4-((4-methoxyphenyl)methylene)-2-(2-thienyl)-5(4H)-oxalone] | 33.6% | 99% | 104% | 94.9% | 93.4% | 2.23% | 0.435 µM | – | – | – | – | – | – | – | – | – | – | – | – | – | % of remaining activity (relative to DMSO) ([1]; CK1a1, listed as Cmp 315): 44.41%; % of remaining activity (relative to DMSO) ([2]; listed as Cmp 315): 96.60%; % of remaining activity (relative to DMSO) ([3]; listed as Cmp 315): 107.86%; % of remaining activity (relative to DMSO) ([4]; listed as Cmp 315): 97.71%; % of remaining activity (relative to DMSO) ([5]; listed as Cmp 315): 90.20%; % of remaining activity (relative to DMSO) ([6]; listed as Cmp 315): 1.38%
Nc1ncc(-c2nc3ccccc3o2)c(-c2ccncc2)n1 [Comparative Compound 324, 5-(1,3-benzoxazol-2-yl)-4-(pyridine-4-yl)pyrimidin-2-amine] | 65.7% | 98.7% | 85.1% | 102% | 109% | 13.3% | 0.483 µM | 54.9 ± 2.66 s | 8.81 ± 0.55 meter | 46.6 ± 3.82 s | 6.77 ± 0.64 meter | 39.8 ± 3.95 s | 5.25 ± 0.58 meter | 36.9 ± 3.87 s | 5.17 ± 0.62 meter | 77% | 78% | 99% | 100% | 91% | remaining binding at 10 µM [13]: 83%; remaining binding at 10 µM [14]: 97%; remaining binding at 10 µM [15]: 100%; remaining binding at 10 µM [16]: 85%; remaining binding at 10 µM [17]: 100%; remaining binding at 10 µM [18]: 83%; remaining binding at 10 µM [19]: 100%; remaining binding at 10 µM [20]: 83%; remaining binding at 10 µM [21]: 90%; remaining binding at 10 µM [22]: 64%; remaining binding at 10 µM [23]: 100%; remaining binding at 10 µM [24]: 89%; % of remaining activity (relative to DMSO) ([1]; CK1a1, listed as Cmp 324): 58.48%; % of remaining activity (relative to DMSO) ([2]; listed as Cmp 324): 105.62%; % of remaining activity (relative to DMSO) ([3]; listed as Cmp 324): 100.01%; % of remaining activity (relative to DMSO) ([4]; listed as Cmp 324): 95.46%; % of remaining activity (relative to DMSO) ([5]; listed as Cmp 324): 109.68%; % of remaining activity (relative to DMSO) ([6]; listed as Cmp 324): 11.87%
CNc1c(C(N)=O)c2ccccn2c1C(=O)c1ccc(F)cc1 [Compound A, 2-methyl-amino-3-[(4-fluorophenyl)carbonyl]indolizine-1-carboxamide] | 5.17% | 59% | 111% | 39.4% | 95.5% | 1.15% | 0.0174 µM | 58.1 ± 1.44 s | 9.20 ± 0.46 meter | 53.7 ± 2.41 s | 8.60 ± 0.52 meter | 49.4 ± 3.23 s | 7.05 ± 0.62 meter | 45.4 ± 3.22 s | 6.94 ± 0.62 meter | 93% | 57% | 82% | 100% | 91% | remaining binding at 10 µM [13]: 87%; remaining binding at 10 µM [14]: 95%; remaining binding at 10 µM [15]: 93%; remaining binding at 10 µM [16]: 85%; remaining binding at 10 µM [17]: 100%; remaining binding at 10 µM [18]: 77%; remaining binding at 10 µM [19]: 86%; remaining binding at 10 µM [20]: 74%; remaining binding at 10 µM [21]: 82%; remaining binding at 10 µM [22]: 49%; remaining binding at 10 µM [23]: 94%; remaining binding at 10 µM [24]: 75%; % of remaining activity (relative to DMSO) ([1]; CK1a1, listed as Cmp A): 5.37%; % of remaining activity (relative to DMSO) ([2]; listed as Cmp A): 55.67%; % of remaining activity (relative to DMSO) ([3]; listed as Cmp A): 109.28%; % of remaining activity (relative to DMSO) ([4]; listed as Cmp A): 39.87%; % of remaining activity (relative to DMSO) ([5]; listed as Cmp A): 96.14%; % of remaining activity (relative to DMSO) ([6]; listed as Cmp A): 0.98%
Nc1ncnc2c1c(COc1cccc(Cl)c1)nn2C1CCOCC1 [PF4800567, 3-[(3-Chlorophenoxy)methyl]-1-(tetrahydro-2H-pyran-4-yl)-1H-pyrazolo[3,4-d]pyrimidin-4-amine] | – | 39% | 83.1% | 19.9% | 95.2% | 8.41% | – | 51.1 ± 3.10 s | 8.00 ± 0.54 meter | 50.0 ± 3.49 s | 7.51 ± 0.56 meter | 43.6 ± 3.86 s | 5.83 ± 0.61 meter | 44.0 ± 3.72 s | 5.70 ± 0.58 meter | – | – | – | – | – | remaining activity at 10 µM ([1]; read-out: % of remaining activity (relative to DMSO), CK1a1): 29.3%
